From patent US20240327359A1, “3-ISOXAZOLIDINONE COMPOUND, PREPARATION METHOD, HERBICIDAL COMPOSITION AND APPLICATION THEREOF” (QINGDAO KINGAGROOT CHEMICAL COMPOUND CO., LTD., priority 2021, published 2024)
Like-named read-outs stand apart in the source and are kept apart here.

System: weeds
Test: Activity test of the compositions, soil sealing treatment
Format: in vivo
Conditions: for pest or weed control at 6 g/ha: B 0.4 g a.i./mu; for pest or weed control at 12 g/ha: B 0.8 g a.i./mu; for pest or weed control at 3.75 g/ha: B 0.25 g a.i./mu; for pest or weed control at 480 g/ha: B 32 g a.i./mu
Description: The desired active ingredient B was purchased from a reagent company or synthesized by a known method. The technical materials were all dissolved in acetone and diluted with an aqueous solution containing 0.10% emulsifier Tween-80 which were to be used immediately after dilution.
Weeds are cultivated in a controllable sunlight greenhouse at 20 to 30° C., in natural light, and with relative humidity of 57% to 72%. […] The test soil was filled quantitatively to ¾ of the pots and then watered from the bottom of the pots to completely wet the soil to saturation. The test weed seeds were accelerated to just germinate, and then evenly and quantitatively sowed on the surface, then covered with 0.5-1 cm soil according to the seed size, and ready for use 72 hours after sowing.
Each treatment was repeated 4 times. Four pots with 20 weed seeds per pot were treated each time.
The well-sowed test materials were evenly placed on a platform with an area of 0.5 m^2, and solution of agents was sprayed on the soil by the 3WP-2000-type walking spray tower at a dosage of 450 kg/ha and at a spray pressure of 0.3 MPa. After all the solution was sprayed, the valve was closed. After 30 seconds, the door of the spray tower was opened, and the nutritional bowl was taken out. Then the valve was opened, and the spray tube was cleaned by spraying 50 ml of water.
A method for investigating absolute numbers was employed. Whole seedlings of survival weeds were cut off with a blade along the soil surface, and the fresh weight of the weeds was weighed with an analytical balance. For dead weeds, the fresh weight thereof was zero.
The investigation was performed 21 days after the treatment for only once in total.

[1] = Echinochloa crusgalli, soil treatment (S), B at 2 g a.i./mu, 21 days
[2] = Echinochloa crus-galli, soil, read-out: Control effect (%) of B applied alone (B)
[3] = Lolium multiflorum, soil (S), read-out: Control effect (%) of B applied alone (B)
[4] = Echinochloa crus-galli, Echinochloa crusgalli, soil (S), B 1 g a.i./mu, read-out: Control effect (%) of B applied alone (B)
[5] = Echinochloa crus-galli, Echinochloa crusgalli, soil (S), B 2 g a.i./mu, read-out: Control effect (%) of B applied alone (B)
[6] = Echinochloa crus-galli, Echinochloa crusgalli, soil (S), B 4 g a.i./mu, read-out: Control effect (%) of B applied alone (B)
[7] = Echinochloa crus-galli, Echinochloa crusgalli, soil (S), B 8 g a.i./mu, read-out: Control effect (%) of B applied alone (B)
[8] = Echinochloa crus-galli, Echinochloa crusgalli, soil (S), B 16 g a.i./mu, read-out: Control effect (%) of B applied alone (B)
[9] = Echinochloa crus-galli, Echinochloa crusgalli, soil (S), read-out: Control effect (%) of B applied alone (B)
[10] = Lolium multiflorum, soil (S), B 20 g a.i./mu, read-out: Control effect (%) of B applied alone (B)
[11] = Lolium multiflorum, soil (S), B 40 g a.i./mu, read-out: Control effect (%) of B applied alone (B)
[12] = Lolium multiflorum, soil (S), B 2 g a.i./mu, read-out: Control effect (%) of B applied alone (B)
[13] = Echinochloa crusgalli, soil (S), B 4 g a.i./mu
[14] = Lolium multiflorum, soil, read-out: Control effect (%) of B applied alone (B)
[15] = Potamogeton distinctus, soil, read-out: Control effect (%) of B applied alone (B)

Molecule: Cc1cc(C)cc(OCC(C)Nc2nc(N)nc(C(C)(C)F)n2)c1 (centres unmarked) [triaziflam]
- Control effect (%) of B applied alone (B) [1]: 29.4%
- Control effect (%) of B applied alone (B) (Echinochloa crusgalli, soil treatment (S), B at 4 g a.i./mu, 21 days): 40.5%

Molecule: C#CCN1C(=O)C(F)(F)Oc2cc(F)c(-n3c(=O)n(C)c(=S)n(C)c3=O)cc21 [trifludimoxazin]
- Control effect (%) of B applied alone (B) (Lolium multiflorum, soil (S), B 2 g a.i./mu): 31.5%
- Control effect (%) of B applied alone (B) (Lolium multiflorum, soil (S), B 4 g a.i./mu): 42.6%

Molecule: CCOCN(C(=O)CCl)c1c(C)cccc1CC [acetochlor]
- pest or weed control at 180 g/ha (Lolium multiflorum, soil (S), B 12 g a.i./mu, read-out: Control effect (%) of B applied alone (B)): 36.5%
- pest or weed control at 360 g/ha (Lolium multiflorum, soil (S), B 24 g a.i./mu, read-out: Control effect (%) of B applied alone (B)): 45.7%

Molecule: CC(C)=C1OC(=O)N(c2cc(OC3CCCC3)c(Cl)cc2F)C1=O [pentoxazone]
- pest or weed control at 30 g/ha [2]: 40.1%
- pest or weed control at 60 g/ha [2]: 57.3%

Molecule: COCc1cnc(C2=NC(C)(C(C)C)C(=O)N2)c(C(=O)O)c1 (centres unmarked) [imazamox]
- pest or weed control at 6 g/ha [3]: 25.4%
- pest or weed control at 12 g/ha [3]: 42.7%

Molecule: CCc1cnc(C2=NC(C)(C(C)C)C(=O)N2)c(C(=O)O)c1 (centres unmarked) [imazethapyr]
- pest or weed control at 15 g/ha [4]: 33.4%
- pest or weed control at 30 g/ha [5]: 43.8%

Molecule: CC(C)N(C)S(=O)(=O)NC(=O)c1cc(-n2c(=O)cc(C(F)(F)F)n(C)c2=O)c(F)cc1Cl [saflufenacil]
- pest or weed control at 3.75 g/ha (Amaranthus retroflexus, soil (S), read-out: Control effect (%) of B applied alone (B)): 35.2%
- pest or weed control at 7.5 g/ha (Amaranthus retroflexus, soil (S), B 0.5 g a.i./mu, read-out: Control effect (%) of B applied alone (B)): 43.8%

Molecule: CC(C)Oc1cc(-n2nc(C(C)(C)C)oc2=O)c(Cl)cc1Cl [oxadiazon]
- pest or weed control at 60 g/ha [6]: 37.2%
- pest or weed control at 120 g/ha [7]: 51.9%

Molecule: COC(=O)[C@@H](C)O/N=C/c1cc(-n2c(=O)cc(C(F)(F)F)n(C)c2=O)c(F)cc1Cl
- pest or weed control at 7.5 g/ha (Echinochloa crus-galli, Echinochloa crusgalli, soil (S), B 0.5 g a.i./mu, read-out: Control effect (%) of B applied alone (B)): 31.5%
- pest or weed control at 15 g/ha [4]: 42.3%

Molecule: CCN(C(=O)n1nnn(-c2ccccc2Cl)c1=O)C1CCCCC1 [fentrazamide]
- pest or weed control at 240 g/ha [8]: 32.5%
- pest or weed control at 480 g/ha [9]: 50.8%

Molecule: CCOc1ccccc1OS(=O)(=O)NC(=O)Nc1nc(OC)cc(OC)n1 [ethoxysulfuron]
- pest or weed control at 3.75 g/ha (Cyperus difformis, soil (S), read-out: Control effect (%) of B applied alone (B)): 44.6%
- pest or weed control at 7.5 g/ha (Cyperus difformis, soil (S), B 0.5 g a.i./mu, read-out: Control effect (%) of B applied alone (B)): 58.4%

Molecule: CC(C)c1ccc(NC(=O)N(C)C)cc1 [isoproturon]
- pest or weed control at 120 g/ha (Alopecurus japonicus, soil (S), B 8 g a.i./mu, read-out: Control effect (%) of B applied alone (B)): 41.5%
- pest or weed control at 240 g/ha (Alopecurus japonicus, soil (S), B 16 g a.i./mu, read-out: Control effect (%) of B applied alone (B)): 53.6%

Molecule: Nc1c([N+](=O)[O-])ccc(Oc2ccccc2)c1Cl [aclonifen]
- pest or weed control at 300 g/ha [10]: 31.6%
- pest or weed control at 600 g/ha [11]: 52.1%

Molecule: S-metolachlor
- Control effect (%) of B applied alone (B) (Lolium multiflorum, soil (S), B 12 g a.i./mu): 32.1%
- Control effect (%) of B applied alone (B) (Lolium multiflorum, soil (S), B 24 g a.i./mu): 53.6%

Molecule: COP(=S)(OC)SCC(=O)N(c1ccc(Cl)cc1)C(C)(C)C [anilofos]
- pest or weed control at 30 g/ha [2]: 23.1%
- pest or weed control at 60 g/ha [2]: 32.6%

Molecule: O=C(Nc1ccc(F)cc1F)c1cccnc1Oc1cccc(C(F)(F)F)c1 [diflufenican]
- pest or weed control at 15 g/ha (Lolium multiflorum, soil (S), B 1 g a.i./mu, read-out: Control effect (%) of B applied alone (B)): 37.1%
- pest or weed control at 30 g/ha [12]: 52.4%

Molecule: CN1C[C@H](c2cccc(C(F)(F)F)c2)[C@@H](C(=O)Nc2ccccc2F)C1=O [tetflupyrolimet]
- Control effect (%) of B applied alone (B) (Echinochloa crusgalli, soil treatment (S), B at 1 g a.i./mu, 21 days): 34.7%
- Control effect (%) of B applied alone (B) [1]: 55.6%

Molecule: CS(=O)(=O)c1ccc(C(=O)C2=C(Sc3ccccc3)C3CCC(C3)C2=O)c(Cl)c1 (centres unmarked) [benzobicyclon]
- Control effect (%) of B applied alone (B) (Echinochloa crusgalli, soil (S), B 2 g a.i./mu): 22.6%
- Control effect (%) of B applied alone (B) [13]: 42.8%

Molecule: CN(C)C(=O)Nc1ccc(Cl)c(Cl)c1 [diuron]
- pest or weed control at 600 g/ha [14]: 39.4%
- pest or weed control at 1200 g/ha [14]: 65.3%

Molecule: CSc1nc(NC(C)C)nc(NC(C)C)n1 [prometryne]
- pest or weed control at 90 g/ha (Commelina communis, soil (S), B 6 g a.i./mu, read-out: Control effect (%) of B applied alone (B)): 30.5%
- pest or weed control at 180 g/ha (Commelina communis, soil (S), B 12 g a.i./mu, read-out: Control effect (%) of B applied alone (B)): 41.7%

Molecule: Cn1nc(C(F)(F)F)c(CS(=O)(=O)C2=NOC(C)(C)C2)c1OC(F)F [pyroxasulfone]
- pest or weed control at 30 g/ha [12]: 24.7%
- pest or weed control at 60 g/ha (Lolium multiflorum, soil (S), B 4 g a.i./mu, read-out: Control effect (%) of B applied alone (B)): 49.2%

Molecule: CC(C)(NC(=O)C(Br)C(C)(C)C)c1ccccc1 (centres unmarked) [bromobutide]
- pest or weed control at 240 g/ha [8]: 37.3%
- pest or weed control at 480 g/ha [9]: 53.6%

Molecule: CS(=O)(=O)c1cc(C(F)(F)F)ccc1C(=O)c1cnoc1C1CC1 [isoxaflutole]
- pest or weed control at 15 g/ha [4]: 26.4%
- pest or weed control at 30 g/ha [5]: 44.3%

Molecule: CSc1nnc(C(C)(C)C)c(=O)n1N [metribuzin]
- pest or weed control at 75 g/ha (Amaranthus retroflexus, soil (S), B 5 g a.i./mu, read-out: Control effect (%) of B applied alone (B)): 40.5%
- pest or weed control at 150 g/ha (Amaranthus retroflexus, soil (S), B 10 g a.i./mu, read-out: Control effect (%) of B applied alone (B)): 56.2%

Molecule: CCNc1nc(NC(C)(C)C)nc(SC)n1 [terbutryne]
- Control effect (%) of B applied alone (B) (Alopecurus japonicus, soil (S), B 12 g a.i./mu): 32.4%
- Control effect (%) of B applied alone (B) (Alopecurus japonicus, soil (S), B 24 g a.i./mu): 41.9%

Molecule: CCOc1cc(Oc2ccc(C(F)(F)F)cc2Cl)ccc1[N+](=O)[O-] [oxyfluorfen]
- pest or weed control at 15 g/ha (Digitaria sanguinalis, soil (S), B 1 g a.i./mu, read-out: Control effect (%) of B applied alone (B)): 28.6%
- pest or weed control at 30 g/ha (Digitaria sanguinalis, soil (S), B 2 g a.i./mu, read-out: Control effect (%) of B applied alone (B)): 39.5%

Molecule: CCNc1nc(NC(C)C)nc(SC)n1 [ametryne]
- pest or weed control at 300 g/ha [14]: 18.1%
- pest or weed control at 600 g/ha [14]: 31.6%

Molecule: CN(C(=O)COc1nc2ccccc2s1)c1ccccc1 [mefenacet]
- pest or weed control at 240 g/ha (Lolium multiflorum, soil (S), B 16 g a.i./mu, read-out: Control effect (%) of B applied alone (B)): 18.5%
- pest or weed control at 480 g/ha [3]: 38.3%

Molecule: COC[C@H](C)N(C(=O)CCl)c1c(C)csc1C [dimethenamid-P]
- Control effect (%) of B applied alone (B) [13]: 34.2%
- Control effect (%) of B applied alone (B) (Echinochloa crusgalli, soil (S), B 8 g a.i./mu): 47.5%

Molecule: CCNc1nc(NCC)nc(SC)n1 [simetryn]
- pest or weed control at 90 g/ha [15]: 41.5%
- pest or weed control at 180 g/ha [15]: 58.3%

Molecule: COc1ccc(-n2c(=O)c(C(=O)C3C(=O)CCCC3=O)nc3c(Cl)cccc32)cc1 [fenquinotrione]
- Control effect (%) of B applied alone (B) (Lolium multiflorum, soil (S), B 1.5 g a.i./mu): 28.6%
- Control effect (%) of B applied alone (B) (Lolium multiflorum, soil (S), B 3 g a.i./mu): 44.1%

Molecule: CCOC(=O)COc1ncccc1Oc1cc(-n2c(=O)cc(C(F)(F)F)n(C)c2=O)c(F)cc1Cl [epyrifenacil]
- Control effect (%) of B applied alone (B) (Amaranthus retroflexus, soil (S), B 0.5 g a.i./mu): 36.9%
- Control effect (%) of B applied alone (B) (Amaranthus retroflexus, soil (S), B 1 g a.i./mu): 47.1%

Molecule: CCNc1nc(Cl)nc(NC(C)C)n1 [atrazine]
- pest or weed control at 300 g/ha [10]: 18.9%
- pest or weed control at 600 g/ha [11]: 36.6%

Molecule: CCN(CC)C(=O)C(C)Oc1cccc2ccccc12 (centres unmarked) [napropamide]
- pest or weed control at 120 g/ha [2]: 30.1%
- pest or weed control at 240 g/ha [2]: 42.3%

Molecule: CSC(=O)c1c(C(F)F)nc(C(F)(F)F)c(C(=O)SC)c1CC(C)C [dithiopyr]
- pest or weed control at 60 g/ha [6]: 40.1%
- pest or weed control at 120 g/ha [7]: 53.2%

Molecule: Cc1ccccc1CO[C@@H]1C[C@@]2(C(C)C)CC[C@]1(C)O2 (racemic) [cinmethylin]
- pest or weed control at 6 g/ha [9]: 26.4%
- pest or weed control at 12 g/ha [9]: 38.6%

Molecule: COC(=O)C12ON=C(c3cc(-n4c(=O)cc(C(F)(F)F)n(C)c4=O)c(F)cc3Cl)C1CCC2C (centres unmarked)
- pest or weed control at 15 g/ha [4]: 40.2%
- pest or weed control at 30 g/ha [5]: 53.1%
